Measurements: patent publication US20090221522A1, “METHODS TO CORRECT GENE SET EXPRESSION PROFILES TO DRUG SENSITIVITY” (The Johns Hopkins University, priority 2008, published 2009)

System: direct pancreatic cancer xenografts (fine needle aspiration cells)
Experiment: Ex vivo perturbability assay, low-density microarray RT-PCR
Type: cell-based
Design: key to RRM1 gene expression / NFKB1 gene expression / BNIP3L gene expression / VHL gene expression / DCK gene expression / HIF1B gene expression / IGF1R gene expression / MAPK1 gene expression / MAP2K2 gene expression / JUN gene expression / IHH gene expression: % of untreated control (treated sample normalized to untreated)
Details: treated normalized to untreated control
From the text: Direct pancreatic cancer derived xenografts: Resected pancreatic adenocarcinomas are routinely implanted in nude mice at the Johns Hopkins Medical Institutions as a method to obtain enriched populations of neoplastic cells under an IRB-approved protocol from residual pancreatic cancer tumors. Tumor specimens from Whipple resection specimens were divided into 2-3 mm^3 pieces in antibiotic-containing RPMI media. Pieces of non-necrotic tissue were selected and immersed in Matrigel. Under anesthesia with isofluorane, tumors were implanted into five-to-six week-old female athymic (nu/nu) mice purchased from Harlan (Harlan Laboratories, Washington, D.C.). This research protocol was approved by the Johns Hopkins University Animal Use and Care Committee arid animals were maintained in accordance to guidelines of the American Association of Laboratory Animal Care. Tumors were propagated to subsequent cohorts of mice until a sufficient number were available for drug testing.
Fine needle aspiration (FNA): FNAs on mice were performed according to standard cytopathologic practice using 10 cc syringes and 25-gauge needles. The procedure was performed under inhaled general anesthesia with isofluorane. During each FNA procedure the first pass was smeared onto glass slides and used for morphologic analysis and quality control, (DiffQuik™ and Papanicoloau), and the second through sixth passes were used to acquire viable cells.
Ex vivo assay: FNA passes used to acquire viable cells were immediately transferred into 10 ml sterile prewarmed complete RPMI-1640 culture medium containing 10% FBS, penicillin (200 ug/ml), and streptomycin (200 ug/ml). Equivalent aliquots of cells were seeded in two wells of a 6-well polypropylene microplate. […] Following treatment, non-adherent and adherent cells (collected by scraping) were pooled together in a 1.5 mL microcentrifuge tube and centrifuged at 500 g for 5 mm at 4° C. After washing with PBS, cells were lysed in 100 μL of ice-cold RLT.
RNA extraction and cDNA generation: Total RNA was extracted from cells using the RNeasy™ Mini Kit (Qiagen, Valencia, Calif.) following the manufacturer's instructions. cDNA was synthesized using iScript cDNA synthesis kit (Bio-Rad) following the manufacturer's instructions.
Low-density micro arrays (LDMA): The samples were run in a customized assay with a 384-well format (ABI, Foster City, Calif.), where the expression of 45 to 381 relevant genes can be quantitatively tested. For this example, the array was designed with 8 replicated sections containing 48 wells, with primers of one gene per well: 3 housekeeping genes (HK: UBC, HPRT, SDHA), and 45 genes of interest. 50 μL of cDNA plus 50 μL of ABI mastermix were loaded onto each of two contiguous lanes to have duplicated readouts of every sample, and were run by real-time reverse transcriptase PCR (RT-PCR). The amount of change in the target genes was calculated by comparing the threshold cycle (CT) of each gene to the geometric mean of the CTs of the HK genes. Relative expression of the target genes was estimated using the formula: relative expression=2−^ΔCT, where ΔCT=CT (target gene)−CT (average of the 3 HK genes). The experiment was run in duplicate and mean values are analyzed.
Data analysis: The expression level of each gene in the treated sample was normalized to that of the untreated control. A significant change was defined when the gene expression either increases two-fold or more (>200%), or decreases to half or more (<50%). The rest is considered uninformative.

## Nc1ccn([C@@H]2O[C@H](CO)[C@@H](O)C2(F)F)c(=O)n1 [gemcitabine]
Case #6
  AXIN2 gene expression: 517
  BAX gene expression: 110
  BNIP3L gene expression: 105
  BRAF gene expression: 88
  BRCA1 gene expression: 195
  CCND1 gene expression: 85
  CXCR4 gene expression: 0
  CyclinB1 gene expression: 84
  DCK gene expression: 91
  EGFR gene expression: 74
  ERCC1 gene expression: 150
  FOS gene expression: 106
  GADD45A gene expression: 75
  GLI2 gene expression: 85
  HIF1A gene expression: 102
  HIF1B gene expression: 65
  IGF1R gene expression: 82
  IGFBP3 gene expression: 34
  IHH gene expression: 122
  MAP2K2 gene expression: 98
  MAPK1 gene expression: 90
  MAPK3 gene expression: 75
  MDM2 gene expression: 81
  MSLN gene expression: 101
  NFKB1 gene expression: 83
  NOTCH1 gene expression: 60
  NOTCH2 gene expression: 79
  PLK1 gene expression: 31
  PSCA gene expression: 132
  PTCH gene expression: 153
  SHH gene expression: 116
  Survivin gene expression: 145
  TGFA gene expression: 101
  VEGF gene expression: 91
  VHL gene expression: 111
  p21 gene expression: 122
Case #7
  AXIN2 gene expression: 41
  BAX gene expression: 100
  BNIP3L gene expression: 100
  BRAF gene expression: 40
  BRCA1 gene expression: 89
  CCND1 gene expression: 127
  CXCR4 gene expression: 5
  CyclinB1 gene expression: 16
  DCK gene expression: 102
  EGFR gene expression: 151
  ERCC1 gene expression: 153
  FOS gene expression: 139
  GADD45A gene expression: 96
  GLI2 gene expression: 73
  HIF1A gene expression: 115
  HIF1B gene expression: 102
  IGF1R gene expression: 28
  IGFBP3 gene expression: 78
  IHH gene expression: 81
  JUN gene expression: 80
  MAP2K2 gene expression: 131
  MAPK1 gene expression: 93
  MAPK3 gene expression: 167
  MDM2 gene expression: 180
  MSLN gene expression: 117
  NOTCH1 gene expression: 104
  NOTCH2 gene expression: 112
  PLK1 gene expression: 98
  PSCA gene expression: 91
  PTCH gene expression: 63
  RRM1 gene expression: 129
  SHH gene expression: 57
  Survivin gene expression: 85
  TGFA gene expression: 131
  VEGF gene expression: 115
  VHL gene expression: 80
  p21 gene expression: 134
Case #8
  AXIN2 gene expression: 81
  BAX gene expression: 91
  BNIP3L gene expression: 106
  BRAF gene expression: 122
  BRCA1 gene expression: 59
  CCND1 gene expression: 107
  CXCR4 gene expression: 342
  CyclinB1 gene expression: 140
  DCK gene expression: 99
  EGFR gene expression: 91
  ERCC1 gene expression: 98
  FOS gene expression: 113
  GADD45A gene expression: 147
  GLI2 gene expression: 531
  HIF1A gene expression: 113
  HIF1B gene expression: 566
  IGF1R gene expression: 101
  IGFBP3 gene expression: 83
  IHH gene expression: 137
  MAP2K2 gene expression: 86
  MAPK1 gene expression: 78
  MAPK3 gene expression: 90
  MDM2 gene expression: 65
  MSLN gene expression: 98
  NOTCH1 gene expression: 118
  NOTCH2 gene expression: 122
  PLK1 gene expression: 90
  PSCA gene expression: 101
  PTCH gene expression: 203
  RRM1 gene expression: 104
  SHH gene expression: 77
  Survivin gene expression: 74
  TGFA gene expression: 107
  VEGF gene expression: 105
  VHL gene expression: 101
  p21 gene expression: 100
Case #9
  AXIN2 gene expression: 106
  BAX gene expression: 92
  BNIP3L gene expression: 95
  BRAF gene expression: 93
  BRCA1 gene expression: 161
  CCND1 gene expression: 97
  CXCR4 gene expression: 649
  CyclinB1 gene expression: 115
  DCK gene expression: 117
  EGFR gene expression: 85
  ERCC1 gene expression: 91
  FOS gene expression: 83
  GADD45A gene expression: 74
  GLI2 gene expression: 99
  HIF1A gene expression: 100
  HIF1B gene expression: 107
  IGF1R gene expression: 53
  IGFBP3 gene expression: 42
  IHH gene expression: 99
  JUN gene expression: 92
  MAP2K2 gene expression: 90
  MAPK1 gene expression: 99
  MAPK3 gene expression: 106
  MDM2 gene expression: 92
  MSLN gene expression: 107
  NOTCH1 gene expression: 96
  NOTCH2 gene expression: 101
  PLK1 gene expression: 111
  PSCA gene expression: 94
  PTCH gene expression: 78
  RRM1 gene expression: 73
  SHH gene expression: 47
  Survivin gene expression: 104
  TGFA gene expression: 103
  VEGF gene expression: 87
  VHL gene expression: 110
  p21 gene expression: 83
Case #10
  AXIN2 gene expression: 202
  BAX gene expression: 91
  BNIP3L gene expression: 97
  BRAF gene expression: 65
  BRCA1 gene expression: 62
  CCND1 gene expression: 69
  CXCR4 gene expression: 53
  CyclinB1 gene expression: 89
  DCK gene expression: 91
  EGFR gene expression: 50
  ERCC1 gene expression: 91
  FOS gene expression: 96
  GADD45A gene expression: 106
  GLI2 gene expression: 30
  HIF1A gene expression: 90
  HIF1B gene expression: 76
  IGF1R gene expression: 66
  IGFBP3 gene expression: 96
  IHH gene expression: 93
  JUN gene expression: 82
  MAP2K2 gene expression: 89
  MAPK1 gene expression: 79
  MAPK3 gene expression: 73
  MDM2 gene expression: 86
  MSLN gene expression: 90
  NFKB1 gene expression: 78
  NOTCH1 gene expression: 70
  NOTCH2 gene expression: 101
  PLK1 gene expression: 68
  PSCA gene expression: 108
  PTCH gene expression: 33
  RRM1 gene expression: 92
  SHH gene expression: 70
  Survivin gene expression: 64
  TGFA gene expression: 141
  VEGF gene expression: 97
  VHL gene expression: 74
  p21 gene expression: 119
